Measured values taken from patent US5593970A, “Heterocyclic anthracycline analogs” (priority 1994, dated 1997).
Where “and” joins values, the source holds several entries; their conditions need not be identical. Equal values may be shown once. Where a name gives a salt, the structure may show the parent alone. Read-outs that look alike come from different tables or passages of the source.

Experiments:
Assay in all cases: Microculture tetrazolium assay
Format in all cases: cell-based
[1] = test system: LOX
[2] = test system: T47D
[3] = test system: SKOV3
[4] = test system: SKVLB; conditions: for VLB/OV3: IC50 ratio SKVLB/SKOV3; for IC50: SKVLB
[5] = test system: HT29
[6] = Homo sapiens, SK-OV-3, SKOV3, read-out: IC50
[7] = Homo sapiens, HT-29, HT29, read-out: IC50

| Compound | IC50 ([1]; read-out: IC50) | IC50 ([2]; read-out: IC50) | IC50 ([3]; SKOV3, read-out: IC50) | VLB/OV3 [4] | IC50 ([4]; read-out: IC50) | IC50 ([5]; HT29, read-out: IC50) | IC50 ([2]; Homo sapiens, read-out: IC50) | IC50 [3, 6] | IC50 [5, 7] | IC50 ([5]; Homo sapiens, HT-29, HT29) | IC50 ([2]; Homo sapiens) | IC50 [1] | IC50 ([3]; Homo sapiens, SK-OV-3, SKOV3) | IC50 [4] |
| --- | --- | --- | --- | --- | --- | --- | --- | --- | --- | --- | --- | --- | --- | --- |
| 1S,3R-Methyl(1-[2',3',6'-trideoxy-3'-trifluoroacetamido-4'-hydroxy-1,5-dihydro-L-lyxohexopyranose-2-yl)-6,11-dioxo-3,4,5,12-tetrahydroanthraceno[2,3- c]pyran-3-yl)ketone [BCH-2156] | 375 nM | 2710 nM | 3410 nM | 1.57 | 5360 nM | 1190 nM |  |  |  |  |  |  |  |  |
| CC(=O)C1CC2=C(C(=O)c3cc4ccccc4c(O)c3C2=O)C(O[C@H]2C[C@H](NC(=O)C(F)(F)F)[C@H](OC(=O)c3ccc([N+](=O)[O-])cc3)[C@H](C)O2)O1 (mixture of isomers) [BCH-1122, (1S',1R,3S) and (1'S,1S,3R)-methyl (6-hydroxy-1-(2',3',6'-trideoxy-3'-trifluoroacetamido-4'-O-p-nitrobenzoyl-L-lyxohexopyranose)-6-hydroxy-5,12-dioxo-3,4,5,12-tetra-hydroanthraceno[2,3-C]pyran-3-yl) ketone] | 2140 nM |  |  | 3.44 | 14700 nM |  | 6790 nM | 4270 nM | > 100000 nM |  |  |  |  |  |
| CC(=O)C1Cc2c(O)c3c(c(O)c2C(O[C@H]2C[C@H](NC(=O)C(F)(F)F)[C@H](O)[C@H](C)O2)O1)C(=O)c1ccccc1C3=O (mixture of isomers) [BCH-1131, (1'S,1S,3R) and (1'S,1R,3S)-Methyl-[5,12-dihydroxy-1-(2',3',6'-trideoxy-3'-trifluoroacetamido-4'-hydroxy-L-lyxohexopyranose)-6,11-dioxo-3,4,6,11,tetrahydroanthraceno-(2,3-C)pyran-3-yl]ketone] | 4830 nM |  |  | 2.45 | 11200 nM |  | 9480 nM | 4580 nM | 6930 nM |  |  |  |  |  |
| COC(=O)[C@@H](N)COC1OC(C(C)=O)CC2=C1C(=O)c1cc3ccccc3c(O)c1C2=O (mixture of isomers) [BCH-1657, (1S,2'S,3R) and (1R, 2'S,3S)-Methyl-{6-hydroxyl-1[O-serinemethyl ester]-5,12-dioxo-3,4,5,12-tetrahydroanthraceno-[2,3-c]pyran-3-yl}ketone hydrochloride salt] | 2410 nM |  |  | 7.42 | 4250 nM |  | 3110 nM | 573 nM | 2590 nM |  |  |  |  |  |
| C[C@@H]1O[C@@H](O[C@H]2O[C@H](C(C)(F)F)CC3=C2C(=O)c2cc4ccccc4c(O)c2C3=O)C[C@H](O)[C@@H]1O (mixture of isomers) [BCH-1662, (1'S,1S,3S) and (1'S,1R, 3R)-5,12-dioxo-3-(1,1-difluoroethyl)-6-hydroxy-1-(2',6'-dideoxy-L-lyxohexopyranose)-3,4,5,12-tetrahydroanthraceno-[2,3-c]-pyran] | 38100 nM |  |  | 1.04 | 89900 nM |  | 59700 nM | 86600 nM | 79600 nM |  |  |  |  |  |
| C[C@@H]1O[C@@H](O[C@@H]2O[C@@H](C(C)(F)F)CC3=C2C(=O)c2cc4ccccc4c(O)c2C3=O)C[C@H](O)[C@@H]1O (mixture of isomers) [BCH-1663, (1'S,1S,3S) and (1'S,1R, 3R)-5,12-dioxo-3-(1,1-difluoroethyl)-6-hydroxy-1-(2',6'-dideoxy-L-lyxohexopyranose)-3,4,5,12-tetrahydroanthraceno-[2,3-c]-pyran] | 31200 nM |  |  | 1.16 | 32400 nM |  | 47900 nM | 27900 nM | 31300 nM |  |  |  |  |  |
| COCC1Cc2c(O)c3c(c(O)c2C(O[C@H]2C[C@H](N)[C@H](O)[C@H](C)O2)O1)C(=O)c1ccccc1C3=O (mixture of isomers) [BCH-1992, (1'S,1S,3R) and (1'S,1R,3S)-5,12-dihydroxy-3-methoxymethyl-1-(2',3',6'-trideoxy-3'-amino-L-lyxohexopyranose)-1,2,3,4-tetrahydro-(2-oxygen)naphthacene-6,11-dione hydrochloride] | 666 nM |  |  | 4.81 | 2740 nM |  | 807 nM | 570 nM |  | 183 nM |  |  |  |  |
| C[C@@H]1O[C@@H](O[C@H]2O[C@H](COc3ccccc3)CC3=C2C(=O)c2cc4ccccc4c(O)c2C3=O)C[C@H](NC(=O)C(F)(F)F)[C@@H]1O (mixture of isomers) [BCH-2048, (1'S,1R,3S) and (1'S,1S,3R)-5,12-dioxo-6-hydroxy-3-phenyloxymethyl-1-(2',3',6'-trideoxy-3'-trifluoroacetamido-L-lyxohexopyranose)-3,4,5,12-tetrahydroanthraceno-[2,3-c]-pyran] | 1770 nM |  |  | 2.36 | 10300 nM |  | 5720 nM | 4360 nM | 6380 nM |  |  |  |  |  |
| C[C@@H]1O[C@@H](OC2OC(C#N)Cc3c(O)c4c(c(O)c32)C(=O)c2ccccc2C4=O)C[C@H](NC(=O)C(F)(F)F)[C@@H]1O (mixture of isomers) [BCH-2055, (1'S,1R,3S) and (1'S,1S,3R)(5,12-Dihydroxy-1-(2',3',6'-trideoxy-3'-trifluoroacetamido-4'-hydroxy-L-lyxohexopyranose)-6,11-dioxo-3,4,5,12-tetrahydroanthraceno-[2,3-c]pyran-3-yl)nitrile] | 1130 nM |  |  | 2.85 | 2560 nM |  |  | 898 nM | 471 nM |  | 3510 nM |  |  |  |
| C[C@@H]1O[C@@H](OC2OC(C#N)Cc3c(O)c4c(c(O)c32)C(=O)c2ccccc2C4=O)C[C@H](N)[C@@H]1O (mixture of isomers) [BCH-2056, (1'S,1R,3S) and (1'S,1S,3R)(5,12-Dihydroxy-1-(2',3',6'-trideoxy-3'-amino-4'-hydroxy-L-lyxohexopyranose)-6,11-dioxo-3,4,5,12-tetrahydroanthraceno-[2,3-c]pyran-3-yl)nitrile] | 170 nM |  |  | 3.50 | 598 nM |  | 271 nM | 171 nM | 83.2 nM |  |  |  |  |  |
| C[C@@H]1O[C@@H](O[C@H]2O[C@H](COc3ccccc3)Cc3c(O)c4c(c(O)c32)C(=O)c2ccccc2C4=O)C[C@H](N)[C@@H]1O (mixture of isomers) [BCH-2058, (1'S,1R,3S) and (1'S,1S,3R)-5,12-dihydroxy-3-phenyloxymethyl-1-(2',3',6'-trideoxy-3'-amino-L-lyxohexopyranose)-1,2,3,4-tetrahydro-(2-oxygen)-naphthacene-6,11-dione-hydrochloride] | 226 nM |  |  | 1.04 | 407 nM |  | 490 nM | 392 nM | 163 nM |  |  |  |  |  |
| C[C@@H]1O[C@@H](O[C@@H]2O[C@@H](COc3ccccc3)Cc3c(O)c4c(c(O)c32)C(=O)c2ccccc2C4=O)C[C@H](N)[C@@H]1O (mixture of isomers) [BCH-2059, (1'S,1R,3S) and (1'S,1S,3R)-5,12-dihydroxy-3-phenyloxymethyl-1-(2',3',6'-trideoxy-3'-amino-L-lyxohexopyranose)-1,2,3,4-tetrahydro-(2-oxygen)-naphthacene-6,11-dione-hydrochloride] | 209 nM |  |  | 1.24 | 306 nM |  | 442 nM | 247 nM | 156 nM |  |  |  |  |  |
| CC(=O)[C@@H]1CC2=C(C(=O)c3cc4ccccc4c(O)c3C2=O)[C@@H](O[C@H]2C[C@H](N)[C@H](O)[C@H](C)O2)O1 [BCH-1128] | 850 nM and 493 nM | 1910 nM | 1200 nM | 1.60 and 1.83 | 1400 nM and 2200 nM |  | 1310 nM | 874 nM |  |  |  |  |  |  |
| CC(=O)[C@@H]1Cc2c(O)c3c(c(O)c2[C@@H](O[C@H]2C[C@H](N)[C@H](O)[C@H](C)O2)O1)C(=O)c1ccccc1C3=O [BCH-1194, (1'S,1R,3S)-Methyl-[5,12-dihydroxy-1-(2',3',6'-trideoxy-3'-amino-4'-hydroxy-L-lyxohexopyranose)-6,11-dioxo-3,4,6,11-tetrahydroanthraceno-(2,3-C)pyran-3-yl]ketone hydrochloride] | 62.3 nM |  |  | 260.71 | 1460 nM |  | 43.9 nM | 5.6 nM |  |  |  |  |  |  |
| CC(=O)[C@H]1Cc2c(O)c3c(c(O)c2[C@H](O[C@H]2C[C@H](N)[C@H](O)[C@H](C)O2)O1)C(=O)c1ccccc1C3=O [BCH-1195, (1'S,1S,3R)-Methyl-[5,12-dihydroxy-1-(2',3',6'-trideoxy-3'-amino-4'-hydroxy-L-lyxohexopyranose)-6,11,dioxo-3,4,6,11-tetrahydroanthraceno-(2,3-C)pyran-3-yl]ketone hydrochloride] | 741 nM |  |  | 4.99 | 3350 nM |  | 1410 nM | 672 nM |  |  |  |  |  |  |
| CC[C@@H]1CC2=C(C(=O)c3cc4ccccc4c(O)c3C2=O)[C@@H](O[C@H]2C[C@H](NC(=O)C(F)(F)F)[C@H](O)[C@H](C)O2)O1 [BCH-1606, (1'S,1R,3R)-5,12-dioxo-3-ethyl-6-hydroxy-1-(2',3',6'-trideoxy-3'-trifluoroacetamido-4'-hydroxy-L-lyxohexopyranose)-3,4,5,12-tetrahydroanthraceno[2,3-c]pyran] | 891 nM |  |  | 2.88 | 3260 nM |  | 1330 nM | 1130 nM |  |  |  |  |  |  |
| CC[C@H]1CC2=C(C(=O)c3cc4ccccc4c(O)c3C2=O)[C@H](O[C@H]2C[C@H](N)[C@H](O)[C@H](C)O2)O1 [BCH-1610, (1'S,1S,3S)-5,12-dioxo-3-ethyl-6-hydroxy-1-(2',3',6'-trideoxy-3'-amino-4'-hydroxy-L-lyxohexopyranose)-3,4,5,12-tetrahydroanthraceno[2,3-c]pyran hydrochloride] |  |  |  | 3.30 |  |  |  |  |  |  | 1360 nM | 845 nM | 839 nM | 2770 nM |
